Measured values from US8425880B1, “Metal-containing materials for treatment of bacterial conditions” (priority 2007, dated 2013).
“And” between values parts separate entries of the source, which are not always exact repeats. Equal values may be shown once.

Key:
C. difficile = assay type: cell-based, Clostridium difficile; conditions: for Microdilution MIC: pH 4
[1] = system: C. difficile spores (strain ATCC 43596); experiment: Sporicidal assay; assay type: cell-based, Clostridium difficile; design: key to growth after 5-6 days of subculture: presence (+) or absence (−) of growth after 5-6 days of subculture; presence (+) or absence (−) of growth after 5-6 days of subculture
Procedure: Louis, Mo.). […] Silver preparations were filtered at 0.2 microns and stored in the dark at room temperature. Spore germination was induced as previously described in, for example, […] and Sonenshein A L. Mol Microbiol. 2003 48(3): 811-821; and Ionesco H. C R Acad Sci Hebd […]. 25; 287(6):659-61. C. difficile suspended in BHI was heat-killed at 80° C. for 10 minutes, and germination then stimulated by a 30-min incubation at 50° C. in the presence of 165 μM thioglycollate, followed by a 15-min incubation at 37° C. in the presence of 4 mg/ml lysozyme.

C. perfringens = assay type: cell-based, Clostridium perfringens

O=[N+]([O-])[O-].[Ag+] [AgNO3, Silver nitrate]
MIC (C. difficile): 18 (8-23) ppm (μg/ml)
Microdilution MIC (C. difficile): 18 ppm and 9 ppm
inactivation of C. difficile spores [1]: inactivated the spores of C. difficile
growth after 5-6 days of subculture ([1]; Expt 2, Conc. 0.00005%): +
growth after 5-6 days of subculture ([1]; Expt 2, Conc. 0.0005%): −
growth after 5-6 days of subculture ([1]; Expt 2, Conc. 0.005%): −
growth after 5-6 days of subculture ([1]; Expt 2, Conc. 0.05%): −
growth after 5-6 days of subculture ([1]; Expt 3, Conc. 0.01%): −
growth after 5-6 days of subculture ([1]; Expt 3, Conc. 0.03%): −
MIC (C. perfringens): 92 ppm (μg/ml)

O=CCCCC=O [Glutaraldehyde, glutaraldehyde]
growth after 5-6 days of subculture ([1]; Expt 1, Conc. 0.02%): +
growth after 5-6 days of subculture ([1]; Expt 1, Conc. 0.2%): −
growth after 5-6 days of subculture ([1]; Expt 1, Conc. 2%): −

silver (I) oxide [Ag2O]
Microdilution MIC (C. difficile): 16 ppm and 31 ppm
inactivation of C. difficile spores [1]: inactivated the spores of C. difficile
growth after 5-6 days of subculture ([1]; Expt 3, Conc. 0.01%): −
growth after 5-6 days of subculture ([1]; Expt 3, Conc. 0.03%): −
